Assay results as given in ChEMBL document CHEMBL5365420, “Kinetics, Thermodynamics, and Structural Effects of Quinoline-2-Carboxylates, Zinc-Binding Inhibitors of New Delhi Metallo-β-lactamase-1 Re-sensitizing Multidrug-Resistant Bacteria for Carbapenems” (J Med Chem, 2023).
Values after ≈ are worked out from the molar mass of the structure shown.

How the values were obtained:
Escherichia coli [1] = assay: Antibacterial activity against clinical isolate Escherichia coli K12 J53-ST10 684/18 expressing bla-NDM-1 co-expressing bla-CMY-2 and bla-OXA-10 assessed as inhibition of bacterial growth measured after 20 hrs by broth microdilution assay; assay type: functional
Escherichia coli [2] = assay: Antibacterial activity against clinical isolate Escherichia coli K12 J53-ST10 696/17 expressing blaNDM-1 co-expressing blaCMY-4 assessed as inhibition of bacterial growth measured after 20 hrs by broth microdilution assay; assay type: functional
Escherichia coli [3] = assay: Antibacterial activity against clinical isolate Escherichia coli K12 J53-ST10 618/15 expressing blaNDM-1 assessed as inhibition of bacterial growth measured after 20 hrs by broth microdilution assay; assay type: functional
Escherichia coli [4] = assay: Antibacterial activity against clinical isolate Escherichia coli K12 J53-ST10 699/15 expressing blaNDM-1 assessed as inhibition of bacterial growth measured after 20 hrs by broth microdilution assay; assay type: functional
Acinetobacter baumannii [5] = assay: Antibacterial activity against clinical isolate Acinetobacter baumannii IC 19/09 expressing blaNDM-1 co-expressing blaOXA-64 assessed as inhibition of bacterial growth measured after 20 hrs by broth microdilution assay; assay type: functional
Escherichia coli [6] = assay: Antibacterial activity against clinical isolate Escherichia coli ST1012/10 expressing blaNDM-1 co-expressing blaTEM-1/blaCTX-M-15/blaOXA-1 and blaOXA-2 assessed as inhibition of bacterial growth measured after 20 hrs by broth microdilution assay; assay type: functional
Klebsiella pneumoniae [7] = assay: Antibacterial activity against clinical isolate Klebsiella pneumoniae ST1493/10 expressing blaNDM-1 co-expressing blaCMY-2like/blaTEM-1/blaCTX-M-15/blaSHV-28/blaOXA-1 and blaOXA-9 assessed as inhibition of bacterial growth measured after 20 hrs by broth microdilution assay; assay type: functional
Klebsiella pneumoniae [8] = assay: Antibacterial activity against clinical isolate Klebsiella pneumoniae 50/11 expressing blaNDM-1 co-expressing blaTEM-1/blaSHV-28/blaTEM-1/blaCTX-M-15 and blaOXA-1 assessed as inhibition of bacterial growth measured after 20 hrs by broth microdilution assay; assay type: functional
Klebsiella pneumoniae [9] = assay: Antibacterial activity against clinical isolate Klebsiella pneumoniae 50/20 expressing blaNDM-5 co-expressing blaTEM-1 and blaSHV-1 assessed as inhibition of bacterial growth measured after 20 hrs by broth microdilution assay; assay type: functional
Escherichia coli [10] = assay: Antibacterial activity against clinical isolate Escherichia coli 371/12 expressing blaNDM-7 co-expressing blaCTX-M-15 and blaOXA-1 assessed as inhibition of bacterial growth measured after 20 hrs by broth microdilution assay; assay type: functional
Klebsiella pneumoniae [11] = assay: Antibacterial activity against clinical isolate Klebsiella pneumoniae ST23213/19 expressing blaNDM-1 co-expressing blaOXA-48/blaSHV-11/blaCTX-M-15 and blaOXA-1 assessed as inhibition of bacterial growth measured after 20 hrs by broth microdilution assay; assay type: functional
Klebsiella pneumoniae [12] = assay: Antibacterial activity against clinical isolate Klebsiella pneumoniae 62/07 expressing blaVIM-19 co-expressing blaSHV-1/blaCTX-M-14 and blaCMY-4 assessed as inhibition of bacterial growth measured after 20 hrs by broth microdilution assay; assay type: functional
[13] = Inhibition of IMP-1 (unknown origin) expressed in Escherichia coli BL21-DE3 incubated for 15 mins by absorbance based microplate reader analysis; design: species or system Bacteria
[14] = target: T1, 72 kDa type IV collagenase (Homo sapiens, UniProt P08253); assay: Inhibition of human recombinant MMP-2 CD at 10 uM using OMNIMMP as substrate incubated for 30 mins by fluorescence based analysis relative to control
Target sequence in this assay (P08253 110-660 limits assumed): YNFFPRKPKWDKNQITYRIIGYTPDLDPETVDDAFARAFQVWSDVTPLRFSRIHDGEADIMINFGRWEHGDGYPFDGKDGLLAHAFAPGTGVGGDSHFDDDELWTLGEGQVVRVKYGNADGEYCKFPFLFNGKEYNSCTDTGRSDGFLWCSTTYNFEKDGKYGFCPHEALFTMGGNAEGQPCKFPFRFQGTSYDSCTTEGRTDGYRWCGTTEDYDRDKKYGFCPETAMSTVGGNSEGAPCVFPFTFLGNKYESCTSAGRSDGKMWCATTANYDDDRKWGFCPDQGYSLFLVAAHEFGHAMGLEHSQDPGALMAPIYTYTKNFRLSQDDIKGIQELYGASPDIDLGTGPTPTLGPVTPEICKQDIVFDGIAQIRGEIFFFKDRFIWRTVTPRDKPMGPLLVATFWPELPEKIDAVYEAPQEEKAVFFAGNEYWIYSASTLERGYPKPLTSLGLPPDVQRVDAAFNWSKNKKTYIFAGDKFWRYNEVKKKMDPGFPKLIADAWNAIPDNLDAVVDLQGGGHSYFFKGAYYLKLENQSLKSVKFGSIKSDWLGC

[15] = Inhibition of VIM-2 (unknown origin) incubated for 15 mins by absorbance based microplate reader analysis; design: species or system Bacteria
[16] = target: Histone deacetylase 1 (Homo sapiens) (UniProt Q13547); assay: Inhibition of C-terminal 6His/FLAG-tagged human recombinant full-length HDAC1 (1 to 482(end) residues) at 10 uM using Boc-Lys-(Ac)-AMC as substrate incubated for 10 mins followed by substrate addition measured after 1 hr by fluorescence based analysis relative to control; details: time 70.0 min
Sequence of Histone deacetylase 1 (Homo sapiens) (Q13547 whole entry): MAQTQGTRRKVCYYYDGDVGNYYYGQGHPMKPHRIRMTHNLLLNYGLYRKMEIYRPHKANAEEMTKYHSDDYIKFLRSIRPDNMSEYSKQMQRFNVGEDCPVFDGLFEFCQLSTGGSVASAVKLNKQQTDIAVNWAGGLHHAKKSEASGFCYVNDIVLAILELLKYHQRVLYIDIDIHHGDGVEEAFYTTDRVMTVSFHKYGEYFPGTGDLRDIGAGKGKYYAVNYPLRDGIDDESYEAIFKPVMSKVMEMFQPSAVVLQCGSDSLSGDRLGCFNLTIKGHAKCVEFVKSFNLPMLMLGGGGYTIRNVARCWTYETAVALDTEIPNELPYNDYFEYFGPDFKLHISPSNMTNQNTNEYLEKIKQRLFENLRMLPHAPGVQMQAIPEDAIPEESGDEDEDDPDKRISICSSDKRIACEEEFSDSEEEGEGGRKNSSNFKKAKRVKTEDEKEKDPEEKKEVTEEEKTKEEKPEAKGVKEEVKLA

[17] = target: Carbonic anhydrase 2 (Homo sapiens) (UniProt P00918); assay: Inhibition of human CA2 at 10 uM using pNPA as substrate preincubated for 15 mins followed by substrate by absorbance based analysis relative to control
[18] = target: T1, 72 kDa type IV collagenase; assay: Binding affinity to human recombinant MMP-2 CD assessed as inhibition constant using OMNIMMP as substrate incubated for 30 mins by fluorescence based analysis
Target sequence in this assay (P08253 whole entry): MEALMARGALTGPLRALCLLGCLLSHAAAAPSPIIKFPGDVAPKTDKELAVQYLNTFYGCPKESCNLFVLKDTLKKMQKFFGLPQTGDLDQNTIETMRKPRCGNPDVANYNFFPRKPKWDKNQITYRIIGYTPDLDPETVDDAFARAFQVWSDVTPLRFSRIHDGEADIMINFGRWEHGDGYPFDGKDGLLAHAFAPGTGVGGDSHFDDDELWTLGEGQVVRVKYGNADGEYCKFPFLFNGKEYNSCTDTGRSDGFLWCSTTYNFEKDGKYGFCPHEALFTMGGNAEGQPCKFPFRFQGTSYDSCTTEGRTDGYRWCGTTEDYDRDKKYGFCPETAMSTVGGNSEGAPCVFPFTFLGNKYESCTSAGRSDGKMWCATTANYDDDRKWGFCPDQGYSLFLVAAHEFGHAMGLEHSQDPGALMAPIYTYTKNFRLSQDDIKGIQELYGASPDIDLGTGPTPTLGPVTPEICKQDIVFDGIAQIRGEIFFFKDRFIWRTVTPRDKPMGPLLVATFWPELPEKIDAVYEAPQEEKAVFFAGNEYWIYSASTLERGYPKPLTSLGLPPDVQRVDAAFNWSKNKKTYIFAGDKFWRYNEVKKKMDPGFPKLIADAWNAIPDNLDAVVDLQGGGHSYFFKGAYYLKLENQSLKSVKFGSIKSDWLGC

Escherichia coli [19] = assay: Antibacterial activity against clinical isolate Escherichia coli K12 J53-ST10 684/18 expressing blaNDM-1 co-expressing blaCMY-2 and blaOXA-10 assessed as meropenem MIC at 29.60 uM measured after 20 hrs by broth microdilution assay (reference value: 12 mg/L); assay type: functional; details: dose 29.6 µM
Escherichia coli [20] = assay: Antibacterial activity against clinical isolate Escherichia coli K12 J53-ST10 684/18 expressing blaNDM-1 co-expressing blaCMY-2 and blaOXA-10 assessed as meropenem MIC at 59.20 uM measured after 20 hrs by broth microdilution assay (reference value: 24 mg/L); assay type: functional; details: dose 59.2 µM
Escherichia coli [21] = assay: Antibacterial activity against clinical isolate Escherichia coli K12 J53-ST10 696/17 expressing blaNDM-1 co-expressing blaCMY-4 assessed as meropenem MIC at 29.60 uM measured after 20 hrs by broth microdilution assay (reference value: 12 mg/L); assay type: functional; details: dose 29.6 µM
Escherichia coli [22] = assay: Antibacterial activity against clinical isolate Escherichia coli K12 J53-ST10 696/17 expressing blaNDM-1 co-expressing blaCMY-4 assessed as meropenem MIC at 59.20 uM measured after 20 hrs by broth microdilution assay (reference value: 24 mg/L); assay type: functional; details: dose 59.2 µM
Escherichia coli [23] = assay: Antibacterial activity against clinical isolate Escherichia coli K12 J53-ST10 618/15 expressing blaNDM-1 assessed as meropenem MIC at 29.60 uM measured after 20 hrs by broth microdilution assay (reference value: 12 mg/L); assay type: functional; details: dose 29.6 µM
Escherichia coli [24] = assay: Antibacterial activity against clinical isolate Escherichia coli K12 J53-ST10 618/15 expressing blaNDM-1 assessed as meropenem MIC at 59.20 uM measured after 20 hrs by broth microdilution assay (reference value: 24 mg/L); assay type: functional; details: dose 59.2 µM
Escherichia coli [25] = assay: Antibacterial activity against clinical isolate Escherichia coli K12 J53-ST10 699/15 expressing blaNDM-1 assessed as meropenem MIC at 29.60 uM measured after 20 hrs by broth microdilution assay (reference value: 12 mg/L); assay type: functional; details: dose 29.6 µM
Escherichia coli [26] = assay: Antibacterial activity against clinical isolate Escherichia coli K12 J53-ST10 699/15 expressing blaNDM-1 assessed as meropenem MIC at 59.20 uM measured after 20 hrs by broth microdilution assay (reference value: 24 mg/L); assay type: functional; details: dose 59.2 µM
Acinetobacter baumannii [27] = assay: Antibacterial activity against clinical isolate Acinetobacter baumannii IC 19/09 expressing blaNDM-1 co-expressing blaOXA-64 assessed as meropenem MIC at 29.60 uM measured after 20 hrs by broth microdilution assay (reference value: 12 mg/L); assay type: functional; details: dose 29.6 µM
Acinetobacter baumannii [28] = assay: Antibacterial activity against clinical isolate Acinetobacter baumannii IC 19/09 expressing blaNDM-1 co-expressing blaOXA-64 assessed as meropenem MIC at 59.20 uM measured after 20 hrs by broth microdilution assay (reference value: 24 mg/L); assay type: functional; details: dose 59.2 µM
Escherichia coli [29] = assay: Antibacterial activity against clinical isolate Escherichia coli ST1012/10 expressing blaNDM-1 co-expressing blaTEM-1/blaCTX-M-15/blaOXA-1 and blaOXA-2 assessed as meropenem MIC at 29.60 uM measured after 20 hrs by broth microdilution assay (reference value: 12 mg/L); assay type: functional; details: dose 29.6 µM
Escherichia coli [30] = assay: Antibacterial activity against clinical isolate Escherichia coli ST1012/10 expressing blaNDM-1 co-expressing blaTEM-1/blaCTX-M-15/blaOXA-1 and blaOXA-2 assessed as meropenem MIC at 59.20 uM measured after 20 hrs by broth microdilution assay (reference value: 24 mg/L); assay type: functional; details: dose 59.2 µM
Klebsiella pneumoniae [31] = assay: Antibacterial activity against clinical isolate Klebsiella pneumoniae ST1493/10 expressing blaNDM-1 co-expressing blaCMY-2like/blaTEM-1/blaCTX-M-15/blaSHV-28/blaOXA-1 and blaOXA-9 assessed as meropenem MIC at 29.60 uM measured after 20 hrs by broth microdilution assay (reference value: 12 mg/L); assay type: functional; details: dose 29.6 µM
Klebsiella pneumoniae [32] = assay: Antibacterial activity against clinical isolate Klebsiella pneumoniae ST1493/10 expressing blaNDM-1 co-expressing blaCMY-2like/blaTEM-1/blaCTX-M-15/blaSHV-28/blaOXA-1 and blaOXA-9 assessed as meropenem MIC at 59.20 uM measured after 20 hrs by broth microdilution assay (reference value: 24 mg/L); assay type: functional; details: dose 59.2 µM
Klebsiella pneumoniae [33] = assay: Antibacterial activity against clinical isolate Klebsiella pneumoniae 50/11 expressing blaNDM-1 co-expressing blaTEM-1/blaSHV-28/blaTEM-1/blaCTX-M-15 and blaOXA-1 assessed as meropenem MIC at 29.60 uM measured after 20 hrs by broth microdilution assay (reference value: 12 mg/L); assay type: functional; details: dose 29.6 µM
Klebsiella pneumoniae [34] = assay: Antibacterial activity against clinical isolate Klebsiella pneumoniae 50/11 expressing blaNDM-1 co-expressing blaTEM-1/blaSHV-28/blaTEM-1/blaCTX-M-15 and blaOXA-1 assessed as meropenem MIC at 59.20 uM measured after 20 hrs by broth microdilution assay (reference value: 24 mg/L); assay type: functional; details: dose 59.2 µM
Klebsiella pneumoniae [35] = assay: Antibacterial activity against clinical isolate Klebsiella pneumoniae 50/20 expressing blaNDM-5 co-expressing blaTEM-1 and blaSHV-1 assessed as meropenem MIC at 29.60 uM measured after 20 hrs by broth microdilution assay (reference value: 12 mg/L); assay type: functional; details: dose 29.6 µM
Klebsiella pneumoniae [36] = assay: Antibacterial activity against clinical isolate Klebsiella pneumoniae 50/20 expressing blaNDM-5 co-expressing blaTEM-1 and blaSHV-1 assessed as meropenem MIC at 59.20 uM measured after 20 hrs by broth microdilution assay (reference value: 24 mg/L); assay type: functional; details: dose 59.2 µM
Escherichia coli [37] = assay: Antibacterial activity against clinical isolate Escherichia coli 371/12 expressing blaNDM-7 co-expressing blaCTX-M-15 and blaOXA-1 assessed as meropenem MIC at 29.60 uM measured after 20 hrs by broth microdilution assay (reference value: 12 mg/L); assay type: functional; details: dose 29.6 µM
Escherichia coli [38] = assay: Antibacterial activity against clinical isolate Escherichia coli 371/12 expressing blaNDM-7 co-expressing blaCTX-M-15 and blaOXA-1 assessed as meropenem MIC at 59.20 uM measured after 20 hrs by broth microdilution assay (reference value: 24 mg/L); assay type: functional; details: dose 59.2 µM
Klebsiella pneumoniae [39] = assay: Antibacterial activity against clinical isolate Klebsiella pneumoniae ST23213/19 expressing blaNDM-1 co-expressing blaOXA-48/blaSHV-11/blaCTX-M-15 and blaOXA-1 assessed as meropenem MIC at 29.60 uM measured after 20 hrs by broth microdilution assay (reference value: 12 mg/L); assay type: functional; details: dose 29.6 µM
Klebsiella pneumoniae [40] = assay: Antibacterial activity against clinical isolate Klebsiella pneumoniae ST23213/19 expressing blaNDM-1 co-expressing blaOXA-48/blaSHV-11/blaCTX-M-15 and blaOXA-1 assessed as meropenem MIC at 59.20 uM measured after 20 hrs by broth microdilution assay (reference value: 24 mg/L); assay type: functional; details: dose 59.2 µM
Klebsiella pneumoniae [41] = assay: Antibacterial activity against clinical isolate Klebsiella pneumoniae 62/07 expressing blaVIM-19 co-expressing blaSHV-1/blaCTX-M-14 and blaCMY-4 assessed as meropenem MIC at 29.60 uM measured after 20 hrs by broth microdilution assay (reference value: 12 mg/L); assay type: functional; details: dose 29.6 µM
Klebsiella pneumoniae [42] = assay: Antibacterial activity against clinical isolate Klebsiella pneumoniae 62/07 expressing blaVIM-19 co-expressing blaSHV-1/blaCTX-M-14 and blaCMY-4 assessed as meropenem MIC at 59.20 uM measured after 20 hrs by broth microdilution assay (reference value: 24 mg/L); assay type: functional; details: dose 59.2 µM

C[C@@H](O)[C@H]1C(=O)N2C(C(=O)O)=C(S[C@@H]3CN[C@H](C(=O)N(C)C)C3)[C@H](C)[C@H]12 [MEROPENEM]
MIC (Escherichia coli [1]): 64 µg/mL (≈ 167 µM)
MIC (Escherichia coli [2]): 16 µg/mL (≈ 41.7 µM)
MIC (Escherichia coli [3]): 32 µg/mL (≈ 83.4 µM)
MIC (Escherichia coli [4]): 32 µg/mL (≈ 83.4 µM)
MIC (Acinetobacter baumannii [5]): > 128 µg/mL
MIC (Escherichia coli [6]): 128 µg/mL (≈ 334 µM)
MIC (Klebsiella pneumoniae [7]): 128 µg/mL (≈ 334 µM)
MIC (Klebsiella pneumoniae [8]): 64 µg/mL (≈ 167 µM)
MIC (Klebsiella pneumoniae [9]): 64 µg/mL (≈ 167 µM)
MIC (Escherichia coli [10]): 64 µg/mL (≈ 167 µM)
MIC (Klebsiella pneumoniae [11]): > 128 µg/mL
MIC (Klebsiella pneumoniae [12]): 128 µg/mL (≈ 334 µM)

O=C(O)c1cc(-c2ccccc2)c2cccc(NS(=O)(=O)c3ccccn3)c2n1
IC50 [13]: 250 nM
inhibition [14]: > 90%
IC50 [15]: 610 nM
inhibition [16]: < 5%
inhibition [17]: < 5%
Ki [18]: 6920 nM
MIC (Escherichia coli [19]): 0.25 µg/mL
MIC (Escherichia coli [20]): ≤ 0.125 µg/mL
MIC (Escherichia coli [21]): ≤ 0.125 µg/mL
MIC (Escherichia coli [22]): ≤ 0.125 µg/mL
MIC (Escherichia coli [23]): ≤ 0.125 µg/mL
MIC (Escherichia coli [24]): ≤ 0.125 µg/mL
MIC (Escherichia coli [25]): 1 µg/mL
MIC (Escherichia coli [26]): ≤ 0.125 µg/mL
MIC (Acinetobacter baumannii [27]): 8 µg/mL
MIC (Acinetobacter baumannii [28]): 1 µg/mL
MIC (Escherichia coli [29]): 1 µg/mL
MIC (Escherichia coli [30]): ≤ 0.125 µg/mL
MIC (Klebsiella pneumoniae [31]): 4 µg/mL
MIC (Klebsiella pneumoniae [32]): 1 µg/mL
MIC (Klebsiella pneumoniae [33]): 0.5 µg/mL
MIC (Klebsiella pneumoniae [34]): ≤ 0.125 µg/mL
MIC (Klebsiella pneumoniae [35]): 2 µg/mL
MIC (Klebsiella pneumoniae [36]): ≤ 0.125 µg/mL
MIC (Escherichia coli [37]): 32 µg/mL
MIC (Escherichia coli [38]): ≤ 0.125 µg/mL
MIC (Klebsiella pneumoniae [39]): 32 µg/mL
MIC (Klebsiella pneumoniae [40]): 16 µg/mL
MIC (Klebsiella pneumoniae [41]): 8 µg/mL
MIC (Klebsiella pneumoniae [42]): 0.5 µg/mL
